Results reported in US6610674B1, “Method of treating inflammatory conditions with progesterone analogs” (University of Pennsylvania, priority 1999, dated 2003).
Where “and” joins values, the source holds several entries; their conditions need not be identical. Identical values can stand only once.

Assays:
[1] = system: lymphocytes infiltrating the large bowel lamina propria; experiment: scid mouse model of Inflammatory Bowel Disease: lymphocytes infiltrating the large bowel lamina propria; assay type: in vivo, scid C.B.-17 mice; settings: for effect on lymphocyte infiltration into the bowel (in words): compared to buffer control; for effect on lymphocyte infiltration into the bowel (in words) / CD4+ Lymphocytes, Average / CD4+ as a percent of total Lymphocytes, Average / Total Lymphocytes, Average: 25 mg/kg orally each day; for CD4+ Lymphocytes, Average / CD4+ as a percent of total Lymphocytes, Average / Total Lymphocytes, Average: group average; for CD4+ Lymphocytes / CD4+ as a percent of total Lymphocytes / Total Lymphocytes: individual mouse, 25 mg/kg orally each day until sacrifice, lamina propria, 25 mg/kg
Source text: The scid (severe combined immunodeficient) C.B.-17 line of mice provide an effective model of Inflammatory Bowel Disease. The disease state in these mice is triggered by the intraperitoneal injection of CD4+ T cells from a normal BALB/C mouse. The induced disease is characterized by intestinal inflammation in the large intestine, leukocytic infiltrates into the mucosa, submucosa, and mucularis, epithelial cell hyperplasia, loss of mucin-secreting cells, and ulcers with deep fissures, and diarrhea. In the mouse model, CD4+ T cells and macrophages infiltrate the bowel. The scid mouse is recognized by the art as a model for IBD. Powrie et al., Inhibition of Th1 Responses Prevents Inflammatory Bowel Disease in scid Mice Reconstituted with CD45RBhi CD4+ T Cells, Immunity 1:553-562 (1994).
500,000 to 1×10^6 T cells derived from the lymph nodes of normal BALB/C mice were injected intraperitoneally into scid mice 6 weeks prior to sacrifice. 2 days before lymphocyte administration, treatment of the scid mice began with buffer control, medroxyprogesterone acetate, or 17-hydroxyprogesterone. The treatment mice (5 in each group) received 25 mg/kg of drug orally each day until sacrifice.
After sacrifice, lamina propria (bowel wall) lymphocytes were isolated from each animal. The total number of lymphocytes, number of CD4+ lymphocytes, and the percent of CD4+ lymphocytes was determined. CD4+ lymphocytes were identified by using a first antibody directed to CD4, and a second antibody directed to the first antibody. The second antibody was tagged with fluorescein, which lights up as green in a flow cytometer, identifying which lymphocytes are the CD4+ form. Lymphocyte infiltration into the bowel is a predictor of the progress of the disease because lymphocytes are involved in the inflammatory response leading to damage of the bowel wall.

[2] = system: TNF-α release from macrophages; experiment: TNF-α release (ELISA) from spleen macrophages of treated mice; assay type: cell-based, mouse
Protocol: The spleens of six of the mice from Example 1 were removed after the animals were sacrificed. Macrophages were isolated from the spleen of the medroxyprogesterone acetate or buffer control treated mice. TNF-α release from these macrophages was measured by ELISA following stimulation with either (1) rat anti-mouse macrophage Fc receptor antibody 2.4G2 and F(ab′)2 IgG goat anti-rat antibody, or (2) phorbol myristate acetate (“PMA”), a phorbol ester. The effect of medroxyprogesterone acetate on TNF-α release is illustrated in Table 2.

[3] = system: IL-6 release from macrophages; experiment: IL-6 release (ELISA) from spleen macrophages of treated mice; assay type: cell-based, mouse
Protocol: The spleens of four of the mice from Example 1 were removed after the animals were sacrificed. Macrophages were isolated from the spleen of the medroxyprogesterone acetate or buffer control treated mice. IL-6 release from these macrophages was measured by ELISA following stimulation with rat anti-mouse macrophage Fc receptor antibody 2.4G2 and F(ab′)2 IgG goat anti-rat antibody. The effect of medroxyprogesterone acetate on IL-6 release is illustrated in Table 3.

[4] = system: Patients with mild to moderate ulcerative colitis; experiment: Treatment of patients with ulcerative colitis (Disease Activity Index); assay type: in vivo, human
Protocol: (§1) Patients with mild to moderate ulcerative colitis were evaluated for their response to treatment with medroxyprogesterone acetate. Patients in the treatment group (8 patients) received a loading dose of 1 gram of medroxyprogesterone acetate every 6 hours for 8 doses. These patients were then given 500 mg of medroxyprogesterone every 12 hours for 8 weeks.
Disease improvement was measured using the Disease Activity Index (DAI). The DAI is a total score for stool frequency, blood in the stool, the investigator's global assessment (IGA), and the physician's evaluation of the appearance of mucosa during flexible sigmoidoscopy of the colon.

[5] = system: Patients with mild to moderate Crohn's disease; experiment: Treatment of patients with Crohn's disease (CDAI); assay type: in vivo, human
Protocol: as §1, with “moderate Crohn's disease” for “moderate ulcerative colitis”, “with […]” for “with medroxyprogesterone”, “group (12” for “group (8”, “patients) recieved” for “patients) received”
Disease improvement was measured using the Crohn's Disease Activity Index (CDAI). The CDAI score for a patient was calculated by multiplying the numerical value for each variable by multiplication factor indicated for that variable, and totaling all of the resultant values, as shown in Table 5. A score below 150 indicated remission and a score above 450 indicated severe disease. In order to enter the study, patients were required to have a total CDAI score of 200 to 400 at baseline.
Disease remission was defined as a CDAI score of 150 or below. Disease response was defined as either a decrease of 70 or greater in the CDAI or disease remission.

[6] = individual mouse, stimulation 2.4G2 and F(ab′)2 IgG anti-rat, listed as MPA

Compound | effect on lymphocyte infiltration into the bowel (in words) [1] | CD4+ Lymphocytes, Average [1] | CD4+ as a percent of total Lymphocytes, Average [1] [%] | Total Lymphocytes, Average [1] | CD4+ Lymphocytes [1] | CD4+ as a percent of total Lymphocytes [1] | Total Lymphocytes [1] | TNF-α Measurement [2, 6] | TNF-α Repeat Measurement [2, 6] | TNF-α Repeat Measurement ([2]; individual mouse, stimulation PMA for Repeat Measurement) [pg/mL] | effect on TNF-α release from macrophages (in words) ([2]; macrophages from treated mice) | IL-6 Measurement [3, 6] | effect on IL-6 release from macrophages (in words) ([3]; macrophages from treated mice) | patients showing improvement with treatment ([4]; 8 weeks, 8 patients) | Improvement (reduction of one or more units in DAI score at end of study vs baseline) ([4]; individual patient, 1 g every 6 hours for 8 doses, then 500 mg every 12 hours for 8 weeks) | non-responders with reduction in symptoms and complaints during initial treatment ([4]; of the 3 patients who did not respond at end of 8 week study) [patients] | adverse event leading to drop out ([5]; 12 patients treated) | Remissions (CDAI score of 150 or below) ([5]; Completers (10 patients), 8 weeks)
CC(=O)[C@@]1(O)CC[C@H]2[C@@H]3CCC4=CC(=O)CC[C@]4(C)[C@H]3CC[C@@]21C [17-hydroxyprogesterone] | did not work in treating the mice | 16.3 1 × 106 | 88.0 | 18.4 1 × 106 | 8.9 1 × 106 and 1.6 1 × 106 and 15 1 × 106 and 23 1 × 106 | 89% and 81% and 93% and 91% | 10 1 × 106 and 2 1 × 106 and 16.5 1 × 106 and 25.2 1 × 106 | – | – | – | – | – | – | – | – | – | – | –
CC(=O)O[C@]1(C(C)=O)CC[C@H]2[C@@H]3C[C@H](C)C4=CC(=O)CC[C@]4(C)[C@H]3CC[C@@]21C [Medroxyprogesterone Acetate, pregn-4-ene-3,20-dione, 17-(acetyloxy)-6-methyl-, (6α)-] | effective in decreasing lymphocyte infiltration into the bowel | 3.8 1 × 106 | 81.4 | 4.5 1 × 106 | 1.6 1 × 106 and 4.1 1 × 106 and 1.3 1 × 106 and 3.0 1 × 106 and 9.2 1 × 106 | 81% and 87% and 65% and 83% and 91% | 2 1 × 106 (2×) and 4.8 1 × 106 and 3.6 1 × 106 and 10.2 1 × 106 | 2314 pg/mL and 27563 pg/mL and 1843 pg/mL | 1026 pg/mL and 0 pg/mL | 0 | may be inhibiting TNF-α release from macrophages | 298,940 and 266,557 | may be inhibiting IL-6 release from macrophages | Five out of eight | Yes (5×) and No (3×) | 2 | One patient dropped out for a minor adverse event (fatigue) | 7
